Data from the METLIN SMRT retention time set (Domingo-Almenara et al. 2019).

Test: gradient 5% acetonitrile 3 min, to 50% in 2 min, to 85% in 15 min, held 3 min, 100 µL/min
Conditions: column: Zorbax Extend-C18 2.1 x 50 mm; eluents: water / acetonitrile, 0.1% formic acid
Method in brief: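 The mobile phases were water and acetonitrile, each with 0.1% formic acid, pumped at 100 μL/min through a Zorbax Extend-C18 column (2.1 × 50 mm, 1.8 μm). Pure standards were injected as mixtures of ~100 molecules and detected by a quadrupole time-of-flight mass spectrometer in positive and negative ionization mode. Retention time came from computationally picked adduct peaks, each inspected by hand.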

Structure (SMILES) | RP-LC retention time [s]
CCOC(=O)C1CCN(C(=O)c2ccc3c(c2)CCCN3S(C)(=O)=O)CC1 | 765
COCCN1C(=O)c2cccn2CC1CNC(=O)c1sccc1C (stereo unspecified) | 689
CCOC(=O)c1ccc(N2C=C(C#N)S(=O)(=O)c3cc(F)ccc32)cc1 | 907
CC1=C(c2ccc(C)cc2)S(=O)(=O)N=C1N1CCCN(C(=O)Cc2cccnc2)CC1 | 624
O=C(c1ccoc1)N1CCN(C(=O)c2nnn3c2COC(c2ccccc2)C3)CC1 (stereo unspecified) | 767
Cc1cccc(CNC(=O)c2sc(CC(=O)N3CCSCC3)nc2C)c1 | 798
CC(CCNc1ccc(-c2nc(-c3ccc(F)cc3)no2)cn1)N1CCCCCC1 (stereo unspecified) | 768
O=C(Cn1ncc2c(N3CCN(c4ccccn4)CC3)ncnc21)Nc1ccc(C(F)(F)F)cc1 | 669
O=C(C1CCC1)N1CCc2sc(S(=O)(=O)NCc3ccccc3)cc2C1 | 847
CN(CCc1noc(-c2ccc(C(=O)N3CCOCC3)cc2)n1)C(=O)C1CCCCC1 | 752
CCn1c(C)nc2c1CN(CC(=O)NCCCN1CCCc3ccccc31)CC2 | 594
O=C(NC1CCN(c2ccccc2)C1=O)c1cccc(Br)c1 (stereo unspecified) | 855
CCOc1ccccc1NC(=O)C1CCc2nc(N3CCCCC3)ncc2C1 (stereo unspecified) | 903
Cc1c(C(=O)c2ccccc2)c2ccccc2n1C | 1030
CCOC(=O)c1c(C)c(-c2ccccc2)n(CC(=O)N2CCN(c3ccccn3)CC2)c1C | 729
Cc1ccc(-c2nnc(SCC(=O)Nc3cc(C)ccc3C)o2)cc1 | 802
CCOC(=O)CNC(=O)Nc1cc(F)c2nc(N3CCCCC3)ccc2c1 | 596
CC(=O)Nc1ccc(C(=O)NC2CCN(c3cc(-c4ccc(F)cc4)[nH]n3)C2)cc1 (stereo unspecified) | 641
Cc1cc(NC(=O)Cn2cc3c(n2)CCCCC3)ccc1Br | 1030
CC(=O)c1ccc(NS(C)(=O)=O)c(Oc2ccc(F)cc2F)c1 | 954
CCOC(=O)c1cnc2nc(C)ccc2c1Nc1cc(OC)cc(OC)c1 | 720
Cc1ccc(S(=O)(=O)c2nc(C)oc2NCc2ccco2)cc1 | 814
CCCn1ccc2oc(C)c(C(=O)NCc3ccccc3Br)c2c1=O | 1110

Structure (SMILES) | RP-LC retention time [s]
COc1ccccc1CNC(=O)C1(c2ccc(NS(C)(=O)=O)cc2)CCCCC1 | 893
Fc1ccc(-c2ccc(CNCc3cccs3)o2)cc1 | 706
CC(C)(C)n1nnnc1C1CC2(CCOCC2)C(=O)N1Cc1cccc(F)c1 (stereo unspecified) | 784
CCOC(=O)c1c(CN2CCN(C)CC2)n(-c2ccccc2)c2cc(Br)c(OC)cc12 | 850
CCn1cc(-c2nc(CC(=O)N3CCc4ccccc43)cs2)c2cccnc21 | 954
Cc1ccc(CNC(=O)C2CCCN(c3ccc(=O)n(-c4ccc(C)c(Cl)c4)n3)C2)cc1 (stereo unspecified) | 975
CCC1CCCCN1C(=O)c1cnc2nc(C)ccc2c1Nc1ccc(S(N)(=O)=O)cc1 (stereo unspecified) | 589
CCCN(CC1CCOC1)C(=O)Nc1ccc(C)c(F)c1 (stereo unspecified) | 857
CCSc1nnc(-c2nn(C)c3c2CN(C(=O)CCc2ccccc2)CC3)n1C | 767
O=S(=O)(Nc1ccc(F)cc1)c1cccnc1Nc1cccc(F)c1 | 1060
Cn1cc(-c2ccccc2)cc1C(=O)O | 842
CCC(=O)N1CCC(C(=O)Nc2ccc(S(=O)(=O)N3CCCC3)cc2)CC1 | 697
CCC(=O)NC(c1ccc(N(C)C)cc1)c1ccc2cccnc2c1O (stereo unspecified) | 620
CCCN1CCN(C(=O)Cn2ccc3ccc(-c4nnc(C)o4)cc32)CC1 | 589
O=C(C1CC1)N1CCc2sc(S(=O)(=O)N3CCN(c4ccccc4)CC3)cc2C1 | 987
CC(C)OCCCNC(=O)C1CC(=O)N(c2n[nH]c3cc(Br)ccc23)C1 (stereo unspecified) | 690
O=C(Nc1ccc2c(c1)OCO2)C1CCN(C(=O)c2cccc(F)c2)CC1 | 753
COc1ccc(-c2nnc(COc3ccc(NC(=O)c4cncc(Br)c4)cc3)o2)cc1 | 893
CCCN1CCn2cc(S(=O)(=O)NCc3ccc(OC)cc3)cc2C1=O | 990
C#C[C@]1(O)CCC2C3CCC4=CC(=O)CCC4C3C(=C)CC21CC (stereo partly specified) | 991
COc1ccc(S(=O)(=O)NC(CC(=O)O)c2ccccc2)cc1 (stereo unspecified) | 674
CN(C)C1(CC2CC2)CCN(C(=O)c2cccs2)CC1 | 584
Cc1cc(S(=O)(=O)N2C[C@H](F)C[C@@H]2C(=O)N2CCOCC2)ccc1Cl | 753

Structure (SMILES) | RP-LC retention time [s]
CCN(CC)CCNc1ccc(CO)c2sc3ccccc3c(=O)c12 | 646
C#CCC(Cc1cnc2nc(N)nc(N)c2n1)c1ccc(C(=O)N[C@@H](CCC(=O)O)C(=O)O)cc1 (stereo partly specified) | 619
CC1(C)COc2ccc(NC(=O)c3c(F)cccc3Cl)cc2NC1=O | 810
COc1cc2c(cc1CNC(=O)COc1ccc(Cl)c(C)c1)OCCCO2 | 1010
CC(C)Cn1c(=O)c2nscc2n(CC(=O)NC2CCCC2)c1=O | 731
O=C(NCCCn1cccn1)C1CCN(c2nnc3ccc(Cl)cn23)CC1 | 618
Cc1nc(-c2ccc(OC3CCN(C(=O)NC4CCCCC4)C3)cc2)no1 (stereo unspecified) | 845
O=C(Nc1nnc(-c2ccc(Cl)s2)o1)c1ccc(S(=O)(=O)N2CCCC2)cc1 | 814
Cc1cccc(NC(=O)C2CCCN2S(=O)(=O)c2ccc3c(c2)NC(=O)CO3)c1C (stereo unspecified) | 805
COCCNC(=O)c1ccccc1Sc1nccnc1Oc1ccccc1 | 852
CCC(Sc1nncn1C)C(=O)Nc1nnc(-c2cccc([N+](=O)[O-])c2)s1 (stereo unspecified) | 689
Cc1ccnc(SCC(=O)Nc2nc(-c3ccccc3)cs2)n1 | 917
COc1ccc(-c2cc(N3CCN(C(=O)c4c(F)cccc4Cl)CC3)ncn2)cc1 | 612
CCOc1ccccc1C(=O)Nc1cccn2nc(CC)nc12 | 1140
Cn1nc(N2CCC(NC(=O)Cc3c[nH]c4ccccc34)C2)ccc1=O (stereo unspecified) | 632
Cc1nn(C)c(C)c1S(=O)(=O)N1CCCC(OCc2noc(C3CCOCC3)n2)C1 (stereo unspecified) | 716
CCOC(=O)c1c(S(=O)(=O)N2CCC(C(=O)NC3CCCCCC3)CC2)c(C)n(C)c1C | 877
CCc1cc(C2CCCN2C(=O)Nc2ccccc2C)on1 (stereo unspecified) | 780
CCn1cc(-c2nc(-c3ccc(C)cc3)no2)c(=O)c2cc(F)c(N3CCOCC3)cc21 | 961
Cc1ccccc1-n1ccn(Cc2nc(-c3cccc(F)c3)no2)c(=O)c1=O | 837
Cc1ccc2c(c1)C(C)(C)C(=O)N2CC(=O)NCc1ccc(F)cc1 | 915
CCCCNC(=O)C1CCN(Cc2cc3ccccc3n2Cc2ccccc2Cl)CC1 | 788
CCOc1cc(C(=O)NC2CCN(c3cc(-c4ccc(OC)cc4)[nH]n3)C2)cc(OCC)c1OCC (stereo unspecified) | 806

Structure (SMILES) | RP-LC retention time [s]
CC(C)n1cnc2ccc(-c3noc(-c4cccs4)n3)cc21 | 746
CCNS(=O)(=O)c1c(C)[nH]c(=O)[nH]c1=O | 550
Cc1cc(N2CCN(C)CC2)n2nc(-c3ccc(Cl)cc3)nc2n1 | 658
CC(C)CCNC(=O)CN1c2ccc(F)cc2-c2ccccc2S1(=O)=O | 963
COc1cccc(NC(=O)Cn2nc3cc(C)nc(Nc4ccccc4C)n3c2=O)c1 | 1010
CC1CC=C(O)C12OCC(C)(C)CO2 (stereo unspecified) | 736
O=C(NCCCO)C(=O)NCCc1ccc(Cl)cc1 | 698
O=C(COc1ccccc1)N1CCc2[nH]nc(-c3ccccc3)c2C1 | 788
O=C(CN1CCCC(COCc2ccccc2)C1)NCc1ccc2c(c1)OCO2 (stereo unspecified) | 592
CC1Cc2ccc(CNC(=O)NC(C)(C)C)cc2N1C(=O)c1ccccc1 (stereo unspecified) | 853
COc1ccc(C2Cn3cnc(-c4nc(-c5ccc(OC)cc5OC)no4)c3CO2)cc1 (stereo unspecified) | 912
O=C(Cc1cccc(F)c1)NC1CCN(c2cc(-c3cccs3)[nH]n2)C1 (stereo unspecified) | 710
COC(=O)c1ncn2c1C(=O)N(c1ccc(C)cc1C)C(C)(C(=O)NC1CCCC1)C2 (stereo unspecified) | 753
CCN1CCn2c(nc3cc(C(=O)NCc4ccccc4C(F)(F)F)ccc32)C1=O | 741
CCc1ccc(N2CC(c3nc(-c4cc(OC)c(OC)c(OC)c4)no3)CC2=O)cc1 (stereo unspecified) | 988
O=C(CN1CC=C(c2cnn(-c3ccc(F)cc3)c2)CC1)NCC1CCCO1 (stereo unspecified) | 628
Cc1cc(C)n(-c2ccnc(N3CCC(C(=O)NCCN4CCCC4)CC3)n2)n1 | 587
CN(C)c1ccc(CN2C(=O)CN(S(C)(=O)=O)CC2(C)C(=O)NCc2ccc(Cl)cc2)cc1 (stereo unspecified) | 662
COc1cccc(-c2noc(Cn3ccn(-c4cc(C)cc(C)c4)c(=O)c3=O)n2)c1OC | 870
Cc1nn(-c2ccc(F)cc2)c(C)c1S(=O)(=O)N1CCC(C(=O)NCc2cccs2)CC1 | 861
CCOC(=O)C1CCCN(c2ccc3nnc(CCc4nc(-c5ccccc5C)no4)n3n2)C1 (stereo unspecified) | 1030
CC1=C(C#N)C(C)(C)C(C#N)=C(C)N1 | 804
